Publication PMC9738927, “A Newly Identified Monoterpenoid-Based Small Molecule Able to Support the Survival of Primary Cultured Dopamine Neurons and Alleviate MPTP-Induced Toxicity In Vivo” (Molecules, 2022)

Experiments:
[1] = system: MPTP-lesioned C57BL/6 mice; test: DA and DOPAC levels in midbrain and striatum by HPLC-ED after MPTP lesion; format: in vivo
Description: Neurochemical analyses via HPLC-ED were conducted as described before. Microdissected samples of the striatum (ST) and midbrain were homogenized in 300 and 400 µL of cold 0.6 M HClO4, respectively, using a motor-driven grinder (Z359971, Sigma-Aldrich, USA) and the homogenate was spun for 15 min at 12,000 rpm (+4 °C). The pellet was diluted in 1 mL of 0.1 M NaCl and used for protein quantitation by Bradford (Bio Rad, USA) according to the manufacturer’s protocol. The clear supernatant was diluted twice with pure water and used for assay of DA and […] (DOPAC) by HPLC on Luna C18(2) column (5 μm particle size, L × I.D. 75 × 4.6 mm, Phenomenex, Torrance, CA, USA) with electrochemical detection (750 mV, DECADE II™ Electrochemical Detector; Antec, The Netherlands). The standard mixes containing 1, 2, and 3 ng of DA and DOPAC were repeatedly assayed throughout the entire procedure and used to plot the calibration curves for each substance. The areas of peaks were estimated using LabSolution LG/GC software version 5.54 (Shimadzu Corporation, Japan) and calibrated against the calibrated curves for corresponding standards. The contents of DA and DOPAC were expressed nanogram (ng) per milligram (mg) of protein assayed by Bradford.

[2] = system: naïve primary midbrain dopamine neurons; test: Survival of naïve cultured dopamine neurons (TH-positive cell count); format: cell-based, mouse
Description: (§1) We developed a compound library containing 20 diol derivatives and screened them on cultured primary DA neurons (Supplementary Materials, Table S1). Compounds were taken at a dose of 0.1 and 1 μM (based on effective doses for the epoxydiol). Based on the screening results, we selected four compounds and tested them in a naïve and MPP^+-treated (1-methyl-4-phenylpyridinium (MPP^+), the neurotoxic metabolite of MPTP) DA culture at 1, 10, and 100 nM to select the compound with the lowest effective dose.
(§2) The survival of cultured mouse DA neurons was assessed as described before. Briefly, naïve or MPP^+ (dopaminergic selective neurotoxin)-challenged embryonic midbrain neurons were cultured in the presence or absence of a diol-like compound. The number of survived DA neurons was estimated after immunocytochemical staining with antibodies recognizing the key enzyme of dopamine synthesis—tyrosine hydroxylase.

[3] = system: MPP^+-treated primary midbrain dopamine neurons; test: Survival of MPP+-challenged cultured dopamine neurons (TH-positive cell count); format: cell-based, mouse
Description: as §1, §2

[4] = system: naïve primary midbrain dopamine neurons; design: method as in PMID 31464415; conditions: cultured DA neurons; cited from earlier work
MPTP-treated mice = system: MPTP-treated mice; design: method as in PMID 31464415; conditions: related compound; cited from earlier work
[5] = 1 uM, compared to VEH-treated wells
[6] = positive control, compared to VEH

For `N[C@@H](Cc1ccc(O)c(O)c1)C(=O)O` [L-DOPA, reference compound], the “MPTP-induced reduction in DA level in the midbrain” value [1] was “tended to alleviate”.

For `C=C(C)[C@@H]1CC=C(C)[C@@H](OC(C)=O)[C@@H]1OC(C)=O` [Substance 1], the inhibition at 1 µM ([2]; Mus musculus, Neuron, 1 uM, compared to VEH-treated wells, read-out: Support effect / inhibition, Naïve dopamine neurons, 1 uM) was 1 to 29%.

In the case of `C#CC1(O)C(O)C(C)=CCC1C(=C)C` (stereo not drawn) [Substance 7], the “Support effect / inhibition, Naïve dopamine neurons, 1 uM” value (from here on “Support effect / inhibition … 1 uM”) [2, 5] is reported as “- (29-1% – -)”.

With `C=CC1(O)C(O)C(C)=CCC1C(=C)C` (stereo not drawn) [Substance 8] the “Support effect / inhibition, MPP+-treated dopamine neurons, 1 nM” value ([3]; 1 nM, compared to VEH-treated wells) was 0 (0% – 0), the “Support effect / inhibition, MPP+-treated dopamine neurons, 10 nM” value ([3]; 10 nM, compared to VEH-treated wells) was 0 (0% – 0) and the “Support effect / inhibition, MPP+-treated dopamine neurons, 100 nM” value ([3]; 100 nM, compared to VEH-treated wells) was 0 (0% – 0).

In the case of `C=C(CSc1ccc(Cl)cc1)C1CC2OC2(C)C(O)C1O` (stereo not drawn) [Substance 9], the “Support effect / inhibition … 1 uM” value [2, 5] is reported as “- (29-1% – -)”.

For `C=C(CSC(C)(C)C)C1CC2OC2(C)C(O)C1O` (stereo not drawn) [Substance 10], the “Support effect / inhibition … 1 uM” value [2, 5] was “- (29-1% – -)”.

For `C=C(CSCC(C)C)C1CC2OC2(C)C(O)C1O` (stereo not drawn) [Substance 11], the “Support effect / inhibition … 1 uM” value [2, 5] was “- - (Inhibition 69-30% – - -)”.

In the case of `C=C(CSCc1ccccc1)C1CC2OC2(C)C(O)C1O` (stereo not drawn) [Substance 13], the “Support effect / inhibition … 1 uM” value [2, 5] is reported as “- (29-1% – -)”.

For `C=C(C)[C@@H]1C[C@H]2O[C@@]2(C)[C@@H](O)[C@@H]1O` [epoxydiol], the “effective concentration in survival assay for DA neurons” value [4] is listed as 100 nM, the “effective doses in survival assay of cultured dopamine neurons” value [4] is listed as 0.1 to 1 µM and the “antiparkinsonian activity in vivo (effective dose)” value (MPTP-treated mice) is listed as 20 mg/kg.

B1: GDNF: glial cell line-derived neurotrophic factor, positive control in the neuron survival assays (protein, UniProt P39905 78-211, looked up)
Glial cell line-derived …: SPDKQMAVLPRRERNRQAAAANPENSRGKGRRGQRGKNRGCVLTAIHLNVTDLGLGYETKEELIFRYCSGSCDAAETTYDKILKNLSRNRRLVSDKVGQACCRPIAFDDDLSFLDDNLVYHILRKHSAKRCGCI
For B1, the “survival of naïve primary midbrain dopamine neurons” value [2, 6] was “promotes the survival” and the “survival of MPP+-treated primary midbrain dopamine neurons” value [3, 6] was “promotes the survival”.
